Experimental data: ChEMBL document CHEMBL6087456 (J Med Chem, 2025)
pEC50, pIC50: −log10 of the molar value. Active and inactive are the calls of the source. The rule behind the calls is not given here.

Key:
Plasmodium falciparum [1] = assay: Prevention of pyknosis of rings in humanized SCID mouse model infected with erythrocyte asexual stage Plasmodium falciparum 3D7 0087/N9 at 1 to 30 mg/kg administered once daily for 6 days measured after 96 to […] post-dose; type: functional, organism-based; details: dose 1-30 mg/kg, time 6.0 day
Cytochrome P450 2C8 = molecular target: T1, Cytochrome P450 2C8 (Homo sapiens, UniProt P10632); assay: Time-dependent inhibition of CYP2C8 in human liver microsomes; type: ADME, Microsome
T1 sequence (P10632 whole entry): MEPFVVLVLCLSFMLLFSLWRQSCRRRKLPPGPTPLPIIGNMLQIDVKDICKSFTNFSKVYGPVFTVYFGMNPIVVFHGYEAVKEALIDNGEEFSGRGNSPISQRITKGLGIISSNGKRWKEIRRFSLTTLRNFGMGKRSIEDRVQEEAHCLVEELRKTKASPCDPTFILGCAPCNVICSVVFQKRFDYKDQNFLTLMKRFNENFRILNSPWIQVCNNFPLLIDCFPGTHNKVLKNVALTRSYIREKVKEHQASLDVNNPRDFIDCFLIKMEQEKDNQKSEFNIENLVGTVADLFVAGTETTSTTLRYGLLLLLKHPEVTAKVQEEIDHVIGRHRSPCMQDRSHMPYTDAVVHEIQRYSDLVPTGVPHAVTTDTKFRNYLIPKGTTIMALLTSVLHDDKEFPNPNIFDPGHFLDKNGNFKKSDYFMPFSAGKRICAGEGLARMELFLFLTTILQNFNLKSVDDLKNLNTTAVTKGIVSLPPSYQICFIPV

Albumin = Albumin (Homo sapiens, UniProt P02768); assay: Protein binding to albumin (unknown origin) in ALBUMAX medium; type: ADME; details: read-out: PB (converted)
Chain of Albumin (P02768 whole entry): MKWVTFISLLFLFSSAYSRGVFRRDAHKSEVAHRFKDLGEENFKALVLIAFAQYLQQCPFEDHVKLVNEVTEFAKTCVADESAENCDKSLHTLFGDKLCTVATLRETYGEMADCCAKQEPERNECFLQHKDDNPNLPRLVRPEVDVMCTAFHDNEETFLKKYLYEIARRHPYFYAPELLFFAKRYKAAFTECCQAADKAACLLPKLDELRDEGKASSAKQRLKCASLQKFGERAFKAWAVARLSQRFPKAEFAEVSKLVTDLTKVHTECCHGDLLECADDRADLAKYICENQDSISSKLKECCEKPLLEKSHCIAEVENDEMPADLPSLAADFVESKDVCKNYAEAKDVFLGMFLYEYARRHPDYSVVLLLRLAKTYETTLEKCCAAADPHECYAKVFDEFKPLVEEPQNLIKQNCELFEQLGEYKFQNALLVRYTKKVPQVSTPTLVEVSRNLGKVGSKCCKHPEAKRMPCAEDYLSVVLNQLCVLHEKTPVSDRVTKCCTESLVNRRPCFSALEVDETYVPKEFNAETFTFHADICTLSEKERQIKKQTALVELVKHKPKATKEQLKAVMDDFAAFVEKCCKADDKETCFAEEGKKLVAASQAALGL

Plasmodium falciparum [2] = assay: Antimalarial activity against erythrocyte asexual stage Plasmodium falciparum 3D7 0087/N9 infected in humanized SCID mouse model at 1 to 30 mg/kg administered once daily for 6 days measured on day 9; type: functional, organism-based; details: dose 1-30 mg/kg, time 6.0 day
[3] = Toxicity in humanized SCID mouse model infected with erythrocyte asexual stage Plasmodium falciparum 3D7 0087/N9 assessed as drug tolerance at 1 to 30 mg/kg administered once daily for 6 days; type: organism-based; details: in vivo, dose 1-30 mg/kg, time 6 day
Plasmodium falciparum [4] = assay: Antimalarial activity against erythrocyte asexual stage Plasmodium falciparum 3D7 0087/N9 infected in humanized SCID mouse model assessed as inhibition of maturation of trophozoites to schizonts at first life cycle at 1 to 30 mg/kg administered once daily measured after 48 hrs; type: functional, organism-based; details: dose 1-30 mg/kg
Plasmodium falciparum [5] = assay: Antimalarial activity against erythrocyte asexual stage Plasmodium falciparum 3D7 0087/N9 infected in humanized SCID mouse model assessed as elimination of trophozoites at second life cycle at 1 to 30 mg/kg administered once daily measured for 48 to 96 hrs; type: functional, organism-based; details: dose 1-30 mg/kg, time lower […], time upper […]
Plasmodium falciparum [6] = assay: Antiparasitic activity against Plasmodium falciparum 3D7 assessed as parasitic reduction ratio at 10 times EC50 pretreated for 120 hrs followed by compound removal and replacement of media without compound measured after 28 days by cell killing assay; type: functional
[7] = Permeability across apical to basal side in human Caco-2 cells; type: ADME, cell-based
[8] = molecular target: Prostaglandin G/H synthase 1 (Homo sapiens) (UniProt P23219); assay: Inhibition of COX1 (unknown origin) at 10 uM relative to control
Chain of Prostaglandin G/H synthase 1 (Homo sapiens) (P23219 whole entry): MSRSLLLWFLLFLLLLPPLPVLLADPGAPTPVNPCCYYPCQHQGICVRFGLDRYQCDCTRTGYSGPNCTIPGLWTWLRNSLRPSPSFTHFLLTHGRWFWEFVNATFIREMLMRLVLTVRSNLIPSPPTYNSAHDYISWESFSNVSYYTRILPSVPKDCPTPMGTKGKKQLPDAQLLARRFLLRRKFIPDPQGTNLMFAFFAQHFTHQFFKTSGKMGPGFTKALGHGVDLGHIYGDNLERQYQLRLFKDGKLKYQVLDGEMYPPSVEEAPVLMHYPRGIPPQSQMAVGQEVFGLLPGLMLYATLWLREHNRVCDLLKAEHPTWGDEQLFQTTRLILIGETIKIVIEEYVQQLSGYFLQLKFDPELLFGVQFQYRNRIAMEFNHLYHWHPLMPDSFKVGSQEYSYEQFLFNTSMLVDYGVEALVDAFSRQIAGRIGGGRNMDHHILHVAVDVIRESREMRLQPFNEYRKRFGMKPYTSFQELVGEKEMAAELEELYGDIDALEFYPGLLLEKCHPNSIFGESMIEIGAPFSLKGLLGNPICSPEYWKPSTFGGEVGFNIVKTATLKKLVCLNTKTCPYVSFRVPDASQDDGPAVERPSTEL

Cytochrome P450 2C9 = Cytochrome P450 2C9 (Homo sapiens, UniProt P11712); assay: Time-dependent inhibition of CYP2C9 in human liver microsomes; type: ADME, Microsome
Chain of Cytochrome P450 2C9 (P11712 whole entry): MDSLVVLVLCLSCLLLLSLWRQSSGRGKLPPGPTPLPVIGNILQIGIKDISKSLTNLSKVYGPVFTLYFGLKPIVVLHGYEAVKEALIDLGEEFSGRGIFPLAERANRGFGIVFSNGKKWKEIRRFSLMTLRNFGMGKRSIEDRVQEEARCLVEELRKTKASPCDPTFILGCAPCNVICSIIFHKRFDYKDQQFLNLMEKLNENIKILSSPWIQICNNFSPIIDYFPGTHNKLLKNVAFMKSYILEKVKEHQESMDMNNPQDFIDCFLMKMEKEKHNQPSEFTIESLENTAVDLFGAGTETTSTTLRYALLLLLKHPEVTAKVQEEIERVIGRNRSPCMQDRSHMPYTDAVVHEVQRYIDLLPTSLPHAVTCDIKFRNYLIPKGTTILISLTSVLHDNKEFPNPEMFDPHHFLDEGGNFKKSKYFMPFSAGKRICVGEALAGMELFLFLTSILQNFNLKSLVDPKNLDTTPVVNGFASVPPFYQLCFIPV

Cytochrome P450 2B6 = molecular target: T2, Cytochrome P450 2B6 (Homo sapiens, UniProt P20813); assay: Inhibition of CYP2B6 in human liver microsomes; type: ADME, Microsome
T2 sequence (P20813 whole entry): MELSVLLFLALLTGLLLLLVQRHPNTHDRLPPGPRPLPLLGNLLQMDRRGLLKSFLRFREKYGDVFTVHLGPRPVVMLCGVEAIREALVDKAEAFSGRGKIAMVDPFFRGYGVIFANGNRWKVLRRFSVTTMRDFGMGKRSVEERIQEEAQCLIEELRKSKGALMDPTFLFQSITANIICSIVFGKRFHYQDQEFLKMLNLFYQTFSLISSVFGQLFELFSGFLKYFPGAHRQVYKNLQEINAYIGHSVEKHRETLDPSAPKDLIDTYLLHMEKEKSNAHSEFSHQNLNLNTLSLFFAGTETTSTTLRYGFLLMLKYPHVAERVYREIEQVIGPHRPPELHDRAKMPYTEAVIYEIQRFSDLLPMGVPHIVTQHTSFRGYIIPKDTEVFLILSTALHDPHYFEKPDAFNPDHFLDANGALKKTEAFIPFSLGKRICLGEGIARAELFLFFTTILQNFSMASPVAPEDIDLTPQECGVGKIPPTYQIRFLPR

Cytochrome P450 3A4 = Cytochrome P450 3A4 (Homo sapiens, UniProt P08684); assay: Inhibition of CYP3A4 in human liver microsomes; type: ADME, Microsome
Chain of Cytochrome P450 3A4 (P08684 whole entry): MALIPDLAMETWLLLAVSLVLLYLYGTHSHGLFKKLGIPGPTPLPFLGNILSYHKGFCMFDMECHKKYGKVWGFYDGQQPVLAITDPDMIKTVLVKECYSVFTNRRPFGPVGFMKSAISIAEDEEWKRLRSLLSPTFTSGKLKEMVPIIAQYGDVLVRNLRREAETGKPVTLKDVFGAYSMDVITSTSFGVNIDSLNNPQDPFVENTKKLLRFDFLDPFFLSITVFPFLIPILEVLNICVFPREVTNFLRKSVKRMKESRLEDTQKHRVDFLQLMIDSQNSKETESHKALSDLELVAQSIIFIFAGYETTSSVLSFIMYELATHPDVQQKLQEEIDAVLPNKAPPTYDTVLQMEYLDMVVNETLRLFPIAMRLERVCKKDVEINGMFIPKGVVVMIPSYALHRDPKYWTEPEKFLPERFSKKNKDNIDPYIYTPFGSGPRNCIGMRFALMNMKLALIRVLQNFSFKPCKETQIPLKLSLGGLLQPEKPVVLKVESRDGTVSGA

[9] = Drug excretion in Sprague-Dawley rat urine at 1 mg/kg, iv; type: ADME, organism-based; details: read-out: Drug excretion
[10] = molecular target: Voltage-gated inwardly rectifying potassium channel KCNH2 (Homo sapiens, UniProt Q12809); assay: Inhibition of hERG expressed in CHO cells by whole-cell patch-clamp assay; type: toxicity, cell-based
Chain of Voltage-gated inwardly rectifying potassium channel KCNH2 (Q12809 whole entry): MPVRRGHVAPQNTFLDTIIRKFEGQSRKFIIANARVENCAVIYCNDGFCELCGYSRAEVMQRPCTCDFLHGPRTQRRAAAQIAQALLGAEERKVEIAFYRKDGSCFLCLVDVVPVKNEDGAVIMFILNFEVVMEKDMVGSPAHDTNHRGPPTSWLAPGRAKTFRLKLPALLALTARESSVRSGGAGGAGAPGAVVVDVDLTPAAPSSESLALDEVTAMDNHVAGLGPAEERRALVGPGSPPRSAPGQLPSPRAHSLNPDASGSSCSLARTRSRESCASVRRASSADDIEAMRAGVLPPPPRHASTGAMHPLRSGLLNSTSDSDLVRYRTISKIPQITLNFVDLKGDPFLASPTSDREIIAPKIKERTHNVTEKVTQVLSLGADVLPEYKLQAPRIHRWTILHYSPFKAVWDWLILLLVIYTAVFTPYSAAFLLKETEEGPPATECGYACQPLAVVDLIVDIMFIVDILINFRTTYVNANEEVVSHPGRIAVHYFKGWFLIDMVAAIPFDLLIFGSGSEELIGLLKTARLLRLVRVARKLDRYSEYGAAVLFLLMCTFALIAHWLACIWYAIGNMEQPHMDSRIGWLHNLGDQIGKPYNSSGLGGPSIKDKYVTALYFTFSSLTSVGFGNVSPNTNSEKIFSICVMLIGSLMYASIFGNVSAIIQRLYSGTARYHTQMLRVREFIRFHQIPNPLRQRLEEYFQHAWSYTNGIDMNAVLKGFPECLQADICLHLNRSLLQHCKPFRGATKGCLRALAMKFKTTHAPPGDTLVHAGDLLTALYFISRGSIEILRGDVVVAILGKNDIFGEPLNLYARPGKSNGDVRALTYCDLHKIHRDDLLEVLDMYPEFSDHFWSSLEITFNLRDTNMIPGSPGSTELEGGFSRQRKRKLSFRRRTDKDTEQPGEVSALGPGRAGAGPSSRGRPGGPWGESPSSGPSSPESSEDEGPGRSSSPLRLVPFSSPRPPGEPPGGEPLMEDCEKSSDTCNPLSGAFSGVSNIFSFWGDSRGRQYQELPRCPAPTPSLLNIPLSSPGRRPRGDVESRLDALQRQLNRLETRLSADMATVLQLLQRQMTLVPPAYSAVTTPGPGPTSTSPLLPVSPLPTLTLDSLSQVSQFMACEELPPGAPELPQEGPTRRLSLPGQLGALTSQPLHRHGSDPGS

**Q.** With `Cn1nc2c(=O)n(C3CC3)cnc2c1[C@](O)(c1cnc(C(F)(F)F)c(Cl)c1)C(F)(F)F` as the compound, how does the Activity (Plasmodium falciparum [1]) read?
**A.** The Activity was “inactive”.

**Q.** And the TDI (Cytochrome P450 2C8)?
**A.** The TDI was “Not_active”.

**Q.** What about the fraction unbound (Albumin) of the same compound?
**A.** Its fraction unbound is 0.514.

**Q.** What about the Activity (Plasmodium falciparum [2]) of the same compound?
**A.** The Activity was “Active”.

**Q.** What about the Activity [3] of the same compound?
**A.** The Activity was “Non-toxic”.

**Q.** What about the Activity (Plasmodium falciparum [4]) of the same compound?
**A.** The Activity was “Active”.

**Q.** What about the Activity (Plasmodium falciparum [5]) of the same compound?
**A.** Its Activity is “Active”.

**Q.** What about the “log(activity)” value (Plasmodium falciparum [6]) of the same compound?
**A.** The value was 2.9.

**Q.** What about the permeability [7] of the same compound?
**A.** The permeability was “Permeable”.

**Q.** And the inhibition [8]?
**A.** The inhibition was 50%.

**Q.** And the TDI (Cytochrome P450 2C9)?
**A.** Its TDI is “Not_active”.

**Q.** What about the pIC50 (Cytochrome P450 2B6) of the same compound?
**A.** Its pIC50 is under 4.70.

**Q.** And the pIC50 (Cytochrome P450 3A4)?
**A.** Its pIC50 is under 4.70.

**Q.** What about the dose excreted [9] of the same compound?
**A.** Its dose excreted is under 1%.

**Q.** What about the pEC50 [10] of the same compound?
**A.** The pEC50 was about 4.30.
